Test results reported in patent US20160075653A1, “NEMATICIDAL N-(PHENYLCYCLOALKYL)CARBOXAMIDES AND N-(PHENYLCYCLOALKYL)THIOCARBOXAMIDES” (BAYER CROPSCIENCE AKTIENGESELLSCHAFT, priority 2013, published 2016).

Assay: Measurement of log P values by HPLC on reversed phase columns (methods [a] pH 2.3, [b] pH 2.7, [c] pH 7.8)
Assay type: physicochemical
Details: HPLC on reversed phase column, method [b], pH 2.7
Experimental: Measurement of log P-Values:
Measurement of log P Values was Performed According EEC Directive 79/831 Annex V.A8 by HPLC (High Performance Liquid
Chromatography) on reversed phase columns with the following methods: ^[a] Measurement was done at pH 2.3 with 0.1% phosphoric acid and acetonitrile as eluent with a linear gradient from 10% acetonitrile to 95% acetonitrile. ^[b] measurement of LC-MS was done at pH 2.7 with 0.1% formic acid in water and with acetonitrile (contains 0.1% formic acid) as eluent with a linear gradient from 10% acetonitrile to 95% acetonitrile. ^[c] Measurement with LC-MS was done at pH 7.8 with 0.001 molar ammonium hydrogen carbonate solution in water as eluent with a linear gradient from 10% acetonitrile to 95% acetonitrile.
Calibration was done with linear alkan-2-ones (with 3 to 16 carbon atoms) with known log P-values (measurement of log P values using retention times with linear interpolation between successive alkanones). Lambda-max-values were determined using UV-spectra from 200 nm to 400 nm and the peak values of the chromatographic signals.

logP | SMILES
3.82^[b] | O=C(N[C@@H]1C[C@@H]1c1ccc(Cl)cc1Cl)c1ccc(Cl)cc1Cl (relative stereo) [Example 613]
3.57^[b] | O=C(N[C@@H]1CC[C@H]1c1cccc(F)c1C(F)(F)F)c1ccccc1Br (relative stereo) [Example 632]
3.72^[b] | O=C(N[C@@H]1CC[C@@H]1c1ccc(Br)cc1C(F)(F)F)c1nccnc1C(F)(F)F (relative stereo) [Example 659]
3.56^[b] | Cc1nc(C(F)(F)F)c(C(=O)N[C@@H]2CC[C@H]2c2cccc(F)c2C(F)(F)F)s1 (relative stereo) [Example 625]
3.47^[b] | O=C(N[C@@H]1CC[C@H]1c1ccc(Cl)cc1Cl)c1ccccc1[N+](=O)[O-] (relative stereo) [Example 672]
3.18^[b] | O=C(NC1CCC1c1ccccc1C(F)(F)F)c1nccnc1C(F)(F)F (stereo not drawn) [Example 604]
4.55^[b] | O=C(N[C@@H]1CC[C@H]1c1ccc(Cl)cc1C(F)(F)F)c1ccc(Cl)cc1Cl (relative stereo) [Example 665]
3.75^[b] | O=C(N[C@@H]1CC[C@H]1c1ccc(Cl)cc1C(F)(F)F)c1c(F)cccc1F (relative stereo) [Example 701]

Same assay, conditions: HPLC on reversed phase column, method [c], pH 7.8

logP | SMILES
3.76^[c]; | O=C(N[C@@H]1C[C@@H]1c1ccc(Cl)cc1Cl)c1ccc(Cl)cc1Cl (relative stereo) [Example 613]
3.62^[c]; | O=C(N[C@@H]1CC[C@@H]1c1ccc(Br)cc1C(F)(F)F)c1nccnc1C(F)(F)F (relative stereo) [Example 659]
3.10^[c]; | O=C(NC1CCC1c1ccccc1C(F)(F)F)c1nccnc1C(F)(F)F (stereo not drawn) [Example 604]

Same assay, conditions: HPLC on reversed phase columns, method [b], pH 2.7

logP | SMILES
3.75^[b] | Cc1nc(C(F)(F)F)c(C(=O)NC2CCC2c2ccc(Cl)cc2C(F)(F)F)s1 (stereo not drawn) [Example 731]
2.98^[b] | Cn1cc(C(=O)N[C@@H]2CCC[C@@H]2c2ccc(F)c(F)c2)c(C(F)(F)F)n1 (relative stereo) [Example 92]
2.03^[b] | COc1nn(C)cc1C(=O)N[C@@H]1C[C@H]1c1ccccc1 (relative stereo) [Example 41]
3.19^[b] | O=C(NC1CC1c1ccccc1Cl)c1ccccc1Br (stereo not drawn) [Example 48]
3.13^[b] | Cn1cccc1C(=O)N[C@@H]1CCC[C@@H]1c1ccc(F)c(F)c1 (relative stereo) [Example 111]
3.63^[b] | O=C(N[C@@H]1CCC[C@@H]1c1ccc(F)c(F)c1)c1sccc1C(F)(F)F (relative stereo) [Example 93]
2.84^[b] | CC(F)c1nn(C)cc1C(=O)NC1CCCC1c1ccc(F)c(F)c1 (mixture of isomers) [Example 126]
3.72^[b] | O=C(N[C@@H]1CCC[C@@H]1c1ccc(F)c(F)c1)c1sccc1Cl (relative stereo) [Example 80]
3.51^[b] | O=C(N[C@@H]1CCC[C@@H]1c1ccc(F)c(F)c1)c1ccccc1OC(F)F (relative stereo) [Example 119]
2.59^[b] | O=C(N[C@@H]1CCC[C@@H]1c1ccc(F)c(F)c1)c1ccncc1F (relative stereo) [Example 69]
3.20^[b] | Cc1nn(C)cc1C(=O)NC1CC1c1ccc(Br)cc1 (stereo not drawn) [Example 23]
3.60^[b] | O=C(NC1CCC1c1ccc(Cl)cc1C(F)(F)F)c1cccnc1C(F)(F)F (stereo not drawn) [Example 720]
3.24^[b] | O=C(N[C@@H]1CC[C@@H]1c1ccc(Cl)cc1C(F)(F)F)c1nccnc1Cl (relative stereo) [Example 717]

Same assay, conditions: HPLC reversed phase, method [b] (pH 2.7)

logP | SMILES
4.21^[b] | O=C(NC1CCCCC1c1ccccc1C(F)(F)F)c1ccccc1C(F)(F)F (stereo not drawn) [Example 374]
3.22^[b] | O=C(NC1CCCC1c1ccccc1C(F)(F)F)c1cccnc1C(F)(F)F (stereo not drawn) [Example 309]
2.51^[b] | O=C(NC1CCCC1c1c(F)cccc1F)c1cccnc1Cl (stereo not drawn) [Example 321]
4.55^[b] | O=C(NC1CCCCCC1c1ccccc1C(F)(F)F)c1ccccc1C(F)(F)F (stereo not drawn) [Example 420]
3.74^[b] | CC(C)Oc1ccc([C@H]2CCC[C@H]2NC(=O)c2ccccc2Cl)cc1 (relative stereo) [Example 317]
3.87^[b] | O=C(NC1CCCCC1c1c(F)cccc1F)c1ccccc1C(F)(F)F (stereo not drawn) [Example 399]
3.01^[b] | O=C(NC1CCCC1c1ccccc1Cl)c1cccnc1C(F)(F)F (stereo not drawn) [Example 361]
3.55^[b] | O=C(N[C@@H]1CCC[C@@H]1c1ccc(C(F)(F)F)cc1)c1nccnc1C(F)(F)F (relative stereo) [Example 330]
3.70^[b] | O=C(NC1CCC1c1ccccc1Cl)c1ccc(Cl)cc1 (stereo not drawn) [Example 446]
3.77^[b] | O=C(N[C@@H]1CC[C@@H]1c1ccccc1Cl)c1ncc(C(F)(F)F)cc1Cl (relative stereo) [Example 246]
2.90^[b] | O=C(NC1CCCC1c1ccccc1C(F)(F)F)c1cccnc1Cl (stereo not drawn) [Example 301]
2.83^[b] | O=C(NC1CCC1c1c(F)cccc1F)c1c(F)cccc1F (stereo not drawn) [Example 439]
4.48^[b] | O=C(N[C@@H]1CC[C@H]1c1ccc(Cl)cc1Cl)c1ccc(Cl)cc1Cl (relative stereo) [Example 265]
3.12^[b] | O=C(N[C@@H]1CCC[C@@H]1c1ccccc1F)c1ccccc1Cl (relative stereo) [Example 316]
3.61^[b] | O=C(NC1CCCCC1c1ccccc1C(F)(F)F)c1cccnc1C(F)(F)F (stereo not drawn) [Example 385]
3.85^[b] | O=C(NC1CCC1c1ccc(Cl)cc1Cl)c1ccc(Cl)cc1 (stereo not drawn) [Example 453]
4.02^[b] | O=C(NC1CCCCC1c1ccccc1Cl)c1ccccc1I (stereo not drawn) [Example 382]
2.06^[b] | O=C(N[C@@H]1CC[C@H]1c1ccccc1Cl)c1cccnc1 (relative stereo) [Example 539]
3.71^[b] | O=C(NC1CCCC1c1ccccc1Br)c1ccccc1C(F)(F)F (stereo not drawn) [Example 355]
3.44^[b] | O=C(NC1CCCCC1c1c(F)cccc1F)c1c(F)cccc1F (stereo not drawn) [Example 395]
3.04^[b] | O=C(N[C@@H]1CCC[C@@H]1c1ccc(C(F)(F)F)cc1)c1cccnc1Cl (relative stereo) [Example 315]
2.83^[b] | O=C(NC1CC1c1ccc(Cl)cc1)c1c(F)cccc1Cl (stereo not drawn) [Example 463]

SMILES | logP
O=C(NC1CCC1c1ccc(Cl)cc1Cl)c1ccccc1C(F)(F)F (stereo not drawn) [Example 474] | 4.02^[b]

Same assay, conditions: HPLC reversed phase, method [c] pH 7.8

logP | SMILES
3.73^[c]; | CC(C)Oc1ccc([C@H]2CCC[C@H]2NC(=O)c2ccccc2Cl)cc1 (relative stereo) [Example 317]
3.45^[c]; | O=C(N[C@@H]1CCC[C@@H]1c1ccc(C(F)(F)F)cc1)c1nccnc1C(F)(F)F (relative stereo) [Example 330]
3.08^[c]; | O=C(N[C@@H]1CCC[C@@H]1c1ccccc1F)c1ccccc1Cl (relative stereo) [Example 316]
2.98^[c]; | O=C(N[C@@H]1CCC[C@@H]1c1ccc(C(F)(F)F)cc1)c1cccnc1Cl (relative stereo) [Example 315]
2.75^[c]; | O=C(NC1CC1c1ccc(Cl)cc1)c1c(F)cccc1Cl (stereo not drawn) [Example 463]

Same assay, conditions: method [b], HPLC reversed phase, pH 2.7

logP | SMILES
3.90^[b] | Cn1cc(C(=O)N(C2CC2)C2CCCCC2c2ccccc2)c(C(F)(F)F)c1 (stereo not drawn) [Example 140]
3.58^[b] | O=C(N[C@@H]1CCC[C@H]1c1ccc(F)c(F)c1)c1ccsc1I (relative stereo) [Example 129]
3.09^[b] | O=C(NC1CC1c1ccc(Cl)cc1)c1ccccc1Cl (stereo not drawn) [Example 198]
2.59^[b] | Cn1nc(C(F)F)c(C(=O)NC2CC2c2ccc(F)cc2)c1F (stereo not drawn) [Example 188]
3.58^[b] | O=C(NC1CC1c1ccc(Cl)cc1Cl)c1ccccc1Br (stereo not drawn) [Example 207]
4.18^[b] | Cc1nn(C)c(F)c1C(=O)N(C1CC1)C1CCCC1c1ccc(Cl)cc1Cl (stereo not drawn) [Example 159]
3.71^[b] | Cc1nn(C)c(F)c1C(=O)N(C1CC1)C1CCCC1c1ccccc1Cl (stereo not drawn) [Example 164]

Same assay, conditions: method [c], HPLC reversed phase, pH 7.8

logP | SMILES
3.02^[c]; | O=C(NC1CC1c1ccc(Cl)cc1)c1ccccc1Cl (stereo not drawn) [Example 198]
3.52^[c]; | O=C(NC1CC1c1ccc(Cl)cc1Cl)c1ccccc1Br (stereo not drawn) [Example 207]

Same assay, conditions: reversed phase HPLC columns, pH 2.7, HPLC on reversed phase columns, method [b] (pH 2.7); read-out: logP

chromatographic logP | SMILES
3.36 | O=C(N[C@@H]1CC[C@@H]1c1c(Cl)cccc1Cl)c1ccc(Cl)cc1 [Example 738]
3.6 | O=C(N[C@@H]1CC[C@@H]1c1c(Cl)cccc1Cl)c1ccccc1Br [Example 735]
